Reference: publication PMC12381025 (Scientific Reports, 2025)

Columns and labels:
α-glucosidase = test: α-Glucosidase inhibition assay; type: biochemical; details: versus standard inhibitor acarbose
α-amylase = test: α-Amylase inhibition assay; type: biochemical; details: versus standard inhibitor acarbose

fold more potent than acarbose against α-glucosidase (α-glucosidase): 5 fold
fold more potent than acarbose against α-amylase (α-amylase): 23.8 fold
Structure (SMILES): O=C(CCc1nc2ccccc2[nH]1)N/N=C/c1cc2ccccc2nc1SCC(=O)Nc1ccc(F)cc1 [Compound 12n, (E)-2-((3-((2-(3-(1 H-benzo[d]imidazol-2-yl)propanoyl)hydrazineylidene)methyl)quinolin-2-yl)thio)-N-(4-fluorophenyl)acetamide]
